Test results taken from ChEMBL document CHEMBL4270614, “Tuning the biological activity of cationic anthraquinone analogues specifically toward Staphylococcus aureus” (Eur J Med Chem, 2018).
Values after ≈ are worked out from the molar mass of the structure shown.

Columns and labels:
[1] = test system: CCD-841CoN; test: Cytotoxicity against human CCD-841-CoN cells after 48 hrs by MTT assay; assay type: cell-based
[2] = test system: Staphylococcus aureus; test: Antibacterial activity against methicillin-resistant Staphylococcus aureus ATCC 33591 measured after 12 to 18 hrs; assay type: functional
[3] = test system: Staphylococcus aureus; test: Antibacterial activity against Staphylococcus aureus ATCC 25923 measured after 12 to 18 hrs; assay type: functional
[4] = test system: BEAS-2B; test: Cytotoxicity against human BEAS2B cells after 48 hrs by MTT assay; assay type: cell-based
[5] = Selectivity index, ratio of IC50 for human BEAS2B cells to IC50 for human A549 cells; conditions: BEAS2B cells versus A549 cells, read-out: Ratio IC50
[6] = test system: A549; test: Cytotoxicity against human A549 cells after 48 hrs by MTT assay; assay type: cell-based; conditions: A549, 48 h
[7] = test system: Staphylococcus aureus; test: Antibacterial activity against methicillin-resistant Staphylococcus aureus ATCC 43300 measured after 12 to 18 hrs; assay type: functional
[8] = test system: COLO 205; test: Cytotoxicity against human COLO205 cells after 48 hrs by MTT assay; assay type: cell-based; conditions: COLO 205, 48 h
[9] = Selectivity index, ratio of IC50 for human CCD-841-CoN cells to IC50 for human COLO205 cells; conditions: CCD-841-CoN cells versus COLO205 cells, read-out: Ratio IC50
[10] = test system: Escherichia coli; test: Antibacterial activity against Escherichia coli ATCC 25922 measured after 12 to 18 hrs; assay type: functional
[11] = test system: Staphylococcus aureus; test: Antibacterial activity against Staphylococcus aureus ATCC 25923; assay type: functional
[12] = test system: Escherichia coli; test: Antibacterial activity against Escherichia coli ATCC 25922; assay type: functional

Compound | IC50 [1] [µg/mL] | MIC [2] [µg/mL] | MIC [3] [µg/mL] | IC50 [4] [µg/mL] | selectivity ratio [5] | IC50 [6] [µg/mL] | MIC [7] [µg/mL] | IC50 [8] [µg/mL] | selectivity ratio [9] | MIC [10] [µg/mL] | MIC [11] [µg/mL] | MIC [12] [µg/mL]
CCCCCC[n+]1nn(-c2ccc([N+](=O)[O-])cc2)c2c1C(=O)c1ccccc1C2=O.O=S(=O)([O-])C(F)(F)F | 40.2 | 1 | 2 to 4 | 38.6 | 0.79 | 48.9 | 128 | 21.2 | 1.89 | – | – | –
CC[n+]1nn(-c2ccc(Cl)cc2)c2c1C(=O)c1ccccc1C2=O.O=S(=O)([O-])C(F)(F)F | 6.65 | 1 | 2 to 4 | 4.22 | 4.96 | 0.85 | 2 | 0.78 | 8.53 | > 128 | – | –
C[n+]1nn(-c2ccc(F)cc2)c2c1C(=O)c1ccccc1C2=O.O=S(=O)([O-])C(F)(F)F | 8.16 | 0.5 | 1 | 14.2 | 6.44 | 2.22 | 1 | 2.86 | 2.85 | > 128 | – | –
C[n+]1nn(-c2ccc(C#N)cc2)c2c1C(=O)c1ccccc1C2=O.O=S(=O)([O-])C(F)(F)F | 32.6 | 1 | 2 | 30.1 | – | 5.2 | 2 | 5.91 | 5.52 | > 128 | – | –
CCCCCCCCn1n[n+](CC)c2c1C(=O)c1ccccc1C2=O.O=S(=O)([O-])C(F)(F)F | – | – | – | – | – | – | – | – | – | – | 0.25 to 0.5 | > 128
COc1ccc(-n2n[n+](C)c3c2C(=O)c2ccccc2C3=O)cc1.O=S(=O)([O-])C(F)(F)F | 5.89 | 0.5 | 1 to 2 | 5.8 | 7.44 | 0.78 | 2 | 0.7 | 8.41 | > 128 | – | –
COc1ccc(-n2n[n+](-c3ccc(OC)c(OC)c3)c3c2C(=O)c2ccccc2C3=O)cc1OC.O=S(=O)([O-])C(F)(F)F | – | 2 | 4 | 3.76 | 2.35 | 1.6 | 4 | – | – | > 128 | – | –
CC[n+]1nn(-c2ccc(OC)cc2)c2c1C(=O)c1ccccc1C2=O.O=S(=O)([O-])C(F)(F)F | 7.85 | 2 | 4 to 8 | 5 | 6.85 | 0.73 | 2 | 0.82 | 9.57 | 128 | – | –
CCCC[n+]1nn(-c2ccc([N+](=O)[O-])cc2)c2c1C(=O)c1ccccc1C2=O.O=S(=O)([O-])C(F)(F)F | 42.8 | 2 | 4 | 49.8 | 1.11 | 44.9 | 8 to 16 | 43.2 | 0.99 | – | – | –
CC[n+]1nn(-c2ccc([N+](=O)[O-])cc2)c2c1C(=O)c1ccccc1C2=O.O=S(=O)([O-])C(F)(F)F | 51.3 | 1 to 2 | 8 to 16 | 43.6 | 5.89 | 7.4 | 4 to 8 | 7.72 | 6.64 | – | – | –
CCCCCCCCCC[n+]1nn(-c2ccc([N+](=O)[O-])cc2)c2c1C(=O)c1ccccc1C2=O.O=S(=O)([O-])C(F)(F)F | 30.6 | 8 | 2 to 4 | 7.39 | 1.05 | 7.02 | 8 to 16 | 7.29 | 4.2 | – | – | –
CN[C@H](CC(C)C)C(=O)N[C@H]1C(=O)N[C@@H](CC(N)=O)C(=O)N[C@H]2C(=O)N[C@H]3C(=O)N[C@H](C(=O)N[C@H](C(=O)O)c4cc(O)cc(O)c4-c4cc3ccc4O)[C@H](O)c3ccc(c(Cl)c3)Oc3cc2cc(c3O[C@@H]2O[C@H](CO)[C@@H](O)[C@H](O)[C@H]2O[C@H]2C[C@](C)(N)[C@H](O)[C@H](C)O2)Oc2ccc(cc2Cl)[C@H]1O [VANCOMYCIN] | – | – | – | – | – | – | 32 (≈ 22.1 µM) | – | – | > 256 | – | –
NC[C@@H]1O[C@H](O[C@H]2[C@@H](O)[C@H](O[C@@H]3[C@@H](O)[C@H](N)C[C@H](N)[C@H]3O[C@H]3O[C@H](CN)[C@@H](O)[C@H](O)[C@H]3N)O[C@@H]2CO)[C@H](N)[C@@H](O)[C@@H]1O [FRAMYCETIN] | – | 256 (≈ 416 µM) | 2 to 4 (≈ 3.25 to 6.51 µM) | – | – | – | > 256 | – | – | 2 (≈ 3.25 µM) | – | –
C[n+]1nn(-c2ccc([N+](=O)[O-])cc2)c2c1C(=O)c1ccccc1C2=O.O=S(=O)([O-])C(F)(F)F | 55.8 | 1 | 2 | 52.9 | 15.1 | 3.5 | 2 | 4.64 | 12 | > 128 | – | –
CCCCCCCC[n+]1nn(-c2ccc([N+](=O)[O-])cc2)c2c1C(=O)c1ccccc1C2=O.O=S(=O)([O-])C(F)(F)F | 31 | 16 | 8 | 21 | 4.76 | 15.6 | 32 | 8.53 | 3.63 | – | – | –
